Measurements from US20230167073A1 (Teijin Pharma Limited, priority 2020, published 2023).

Target: T1, Human TRPC6 (Homo sapiens, UniProt Q9Y210)
T1 construct: expressed in transfected cells
T1 sequence (Q9Y210 1-931): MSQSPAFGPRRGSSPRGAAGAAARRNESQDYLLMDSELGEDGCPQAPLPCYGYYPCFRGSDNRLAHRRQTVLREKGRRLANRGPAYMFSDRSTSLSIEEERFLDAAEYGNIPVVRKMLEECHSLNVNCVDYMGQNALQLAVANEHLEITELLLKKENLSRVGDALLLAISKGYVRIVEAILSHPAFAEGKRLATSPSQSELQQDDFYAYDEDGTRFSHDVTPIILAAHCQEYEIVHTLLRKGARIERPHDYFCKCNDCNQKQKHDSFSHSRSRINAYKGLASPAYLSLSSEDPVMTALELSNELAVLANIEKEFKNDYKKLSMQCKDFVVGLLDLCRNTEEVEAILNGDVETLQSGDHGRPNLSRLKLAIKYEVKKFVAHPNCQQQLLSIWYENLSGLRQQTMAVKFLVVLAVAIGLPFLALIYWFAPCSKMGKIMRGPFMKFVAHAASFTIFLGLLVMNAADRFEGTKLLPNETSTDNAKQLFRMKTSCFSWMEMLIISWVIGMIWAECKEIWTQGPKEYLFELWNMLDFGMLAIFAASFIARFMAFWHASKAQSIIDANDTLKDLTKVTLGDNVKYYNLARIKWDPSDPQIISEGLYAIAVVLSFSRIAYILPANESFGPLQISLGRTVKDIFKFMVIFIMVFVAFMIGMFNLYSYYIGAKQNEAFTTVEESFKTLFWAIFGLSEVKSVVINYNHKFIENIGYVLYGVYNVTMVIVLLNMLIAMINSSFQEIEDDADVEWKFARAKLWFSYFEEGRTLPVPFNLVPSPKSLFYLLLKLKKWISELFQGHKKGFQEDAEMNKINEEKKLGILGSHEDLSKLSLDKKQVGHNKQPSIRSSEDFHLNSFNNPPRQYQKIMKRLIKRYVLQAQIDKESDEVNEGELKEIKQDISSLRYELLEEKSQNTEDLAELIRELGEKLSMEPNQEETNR
Test: Evaluation of TRPC6 channel inhibitory activity (2), HEK293 cells with stably introduced human TRPC6, OAG stimulation, FLIPR tetra (Compound Nos. 1293 to 1405)
Format: cell-based
Conditions: HEK293 cells with stably introduced human TRPC6, OAG 50 μM/0.5% DMSO, read-out: Inhibitory activity (pIC50 class) (converted)
In short: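 Calcium-dye-loaded HEK293 cells stably expressing human TRPC6 were pretreated with compound for 25 min, then stimulated with 50 μM OAG (0.5% DMSO) in Ca ringer buffer pH 7.2 with 2 mM CaCl2. Background-subtracted FLIPR calcium peaks were normalized to OAG (100%) and buffer (0%); pIC50 came from four-parameter logistic fit, binned as +/++/+++.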

SMILES	IC50 [nM]
Cc1nc(Oc2cc(Cl)ccc2-c2ncc([C@H](F)CN)cn2)cc(N2CCOCC2)n1 [compound 1375, (2S)-2-[2-[4-chloro-2-(2-methyl-6-morpholin-4-ylpyrimidin-4-yl)oxyphenyl]pyrimidin-5-yl]-2-fluoroethanamine]	10 to 1000
Cn1nc(-c2ccccn2)cc1Oc1cc(C#N)ccc1-c1ncc([C@@H](F)CN)cn1 [compound 1295, 4-[5-[(1R)-2-amino-1-fluoroethyl]pyrimidin-2-yl]-3-(2-methyl-5-pyridin-2-ylpyrazol-3-yl)oxybenzonitrile]	< 10
Cc1cc(Oc2cc(Cl)ccc2-c2ncc([C@H](F)CN)cn2)cc(N2CCOCC2)n1 [compound 1337, (2S)-2-[2-[4-chloro-2-(2-methyl-6-morpholin-4-ylpyridin-4-yl)oxyphenyl]pyrimidin-5-yl]-2-fluoroethanamine]	< 10
Cc1cc(Oc2cc(C#N)ccc2-c2ncc3c(n2)CNC3)cc(N2CCOCC2)n1 [compound 1392, 4-(6,7-dihydro-5H-pyrrolo[3,4-d]pyrimidin-2-yl)-3-(2-methyl-6-morpholin-4-ylpyridin-4-yl)oxybenzonitrile]	> 1000
Cc1cc(Oc2cc(Cl)ccc2-c2ccc([C@H](O)CN)cn2)cc(N2CCOCC2)n1 [compound 1396, (1S)-2-amino-1-[6-[4-chloro-2-(2-methyl-6-morpholin-4-ylpyridin-4-yl)oxyphenyl]pyridin-3-yl]ethanol]	10 to 1000
Cn1nc(-c2ccccn2)cc1Oc1cc(Cl)ncc1-c1ccc(CCN)cc1 [compound 1332, 2-[4-[6-chloro-4-(2-methyl-5-pyridin-2-ylpyrazol-3-yl)oxypyridin-3-yl]phenyl]ethanamine]	> 1000

More lines, now with the values ahead:

IC50 [nM]	SMILES
10 to 1000	Cn1nc(C2CC2)cc1Oc1cc(F)ccc1-c1ncc([C@H](O)CN)cn1 [compound 1383, (1S)-2-amino-1-[2-[2-(5-cyclopropyl-2-methylpyrazol-3-yl)oxy-4-fluorophenyl]pyrimidin-5-yl]ethanol]
< 10	Cn1nc(-c2ccccn2)cc1Oc1cc(C#N)ccc1-c1ccc([C@@H](F)CN)cn1 [compound 1301, 4-[5-[(1R)-2-amino-1-fluoroethyl]pyridin-2-yl]-3-(2-methyl-5-pyridin-2-ylpyrazol-3-yl)oxybenzonitrile]
10 to 1000	Cn1nc(-c2ccccn2)cc1Oc1cc(Cl)cnc1-c1ccc([C@@H](F)CN)cn1 [compound 1353, (2R)-2-[6-[5-chloro-3-(2-methyl-5-pyridin-2-ylpyrazol-3-yl)oxypyridin-2-yl]pyridin-3-yl]-2-fluoroethanamme]
10 to 1000	Cn1nc(C2CC2)cc1Oc1cc(Cl)cnc1-c1ccc([C@@H](F)CN)cn1 [compound 1370, (2R)-2-[6-[5-chloro-3-(5-cyclopropyl-2-methylpyrazol-3-yl)oxypyridin-2-yl]pyridin-3-yl]-2-fluoroethanamine]
< 10	Cn1nc(-c2ccccn2)cc1Oc1cc(Cl)cnc1-c1ccc([C@H](F)CN)cn1 [compound 1354, (2S)-2-[6-[5-chloro-3-(2-methyl-5-pyridin-2-ylpyrazol-3-yl)oxypyridin-2-yl]pyridin-3-yl]-2-fluoroethanamine]
< 10	Cn1nc([C@@H]2CCOC2)cc1Oc1cc(C#N)ccc1-c1ccc(CN)cn1 [compound 1306, 4-[5-(aminomethyl)pyridin-2-yl]-3-[2-methyl-5-[(3S)-oxolan-3-yl]pyrazol-3-yl]oxybenzonitrile]
10 to 1000	Cn1nc(C2CCOCC2)cc1Oc1cc(C#N)ccc1-c1ncc([C@H](F)CN)cn1 [compound 1314, 4-[5-[(1S)-2-amino-1-fluoroethyl]pyrimidin-2-yl]-3-[2-methyl-5-(oxan-4-yl)pyrazol-3-yl]oxybenzonitrile]
